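Assay format: 96-well plates, 48-hour exposure. Definition used: TGI = concentration required for complete inhibition of growth.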 A value given as a limit tells only on which side of the number the result lay.

We go through seven molecules from PubChem BioAssay (NCI).

Some test systems named below: NCI-H23 lung; SF-295 CNS; ACHN renal; CAKI-1 renal; UACC-62 melanoma; SF-268 CNS; K-562 leukemia; SR leukemia; UACC-257 melanoma; BT-549 breast; 786-0 renal; SN12C renal; HCT-116 colon; KM12 colon; SNB-19 CNS; T-47D breast; IGROV1 ovarian.
Common to all, as to assay: NCI-60 cell line screen, 48 h

As to `CCCCOP(=O)(OCCCC)/C(C#N)=C/c1ccc(C)o1`, the TGI was 92.3 µM with NCI-H23 lung; greater than 100 µM in the assay with SF-295 CNS; greater than 100 µM in the assay with ACHN renal; greater than 100 µM in the assay on CAKI-1 renal; greater than 100 µM with UACC-62 melanoma; greater than 100 µM in the assay with SF-268 CNS. Besides, the TGI with K-562 leukemia was 71.3 µM; in the assay with SR leukemia it was greater than 100 µM; in the assay on UACC-257 melanoma, greater than 100 µM; in the assay with BT-549 breast, 43 µM; in the assay on 786-0 renal, greater than 100 µM; with SN12C renal it was greater than 100 µM. For the same molecule, the TGI in the assay on HCT-116 colon, in the assay on KM12 colon, in the assay on SNB-19 CNS, with T-47D breast and in the assay with IGROV1 ovarian was greater than 100 µM throughout.
Take `CCOC(=O)N1CC2(C(=O)OC)C=CC1C(C(=O)OC)C2` (centres undefined): the TGI in the assay on NCI-H23 lung, with SF-295 CNS, in the assay with ACHN renal, in the assay with CAKI-1 renal, with UACC-62 melanoma and in the assay with SF-268 CNS was greater than 100 µM in each case. Besides, the TGI in the assay on K-562 leukemia, in the assay with SR leukemia, in the assay with UACC-257 melanoma, in the assay with BT-549 breast, in the assay on 786-0 renal and in the assay with SN12C renal was greater than 100 µM each time. The TGI in the assay on HCT-116 colon, in the assay on KM12 colon, in the assay with SNB-19 CNS, with T-47D breast and in the assay on IGROV1 ovarian was greater than 100 µM in each case.
Turning to `CC(=O)c1c2c(cc3c1CC1(Cc4cc5c(cc4C1=O)CCC5)C3)CCC2` (centres undefined), the TGI with NCI-H23 lung, in the assay on SF-295 CNS, in the assay with ACHN renal, with CAKI-1 renal, with UACC-62 melanoma and in the assay with SF-268 CNS was greater than 100 µM each time. Besides, the TGI with K-562 leukemia, in the assay on SR leukemia, in the assay with UACC-257 melanoma, with BT-549 breast, with 786-0 renal and with SN12C renal was greater than 100 µM each time. The TGI in the assay on HCT-116 colon, in the assay on KM12 colon, in the assay with SNB-19 CNS, with T-47D breast and in the assay with IGROV1 ovarian was greater than 100 µM in each case.
For the molecule `Oc1ccc(-c2c3ccccc3c(-c3ccc(OCCBr)cc3)c3ccccc23)cc1`, the TGI with NCI-H23 lung is 34.9 µM; in the assay with SF-295 CNS it was 32.7 µM; in the assay on ACHN renal, 90.7 µM; in the assay with CAKI-1 renal it was 67.1 µM; with UACC-62 melanoma, 42.1 µM; in the assay on SF-268 CNS it was greater than 100 µM. Besides, the TGI with K-562 leukemia turned out to be 97.4 µM; in the assay on SR leukemia it was 92.6 µM; with UACC-257 melanoma, 54.5 µM; in the assay with BT-549 breast, 57.4 µM; in the assay with 786-0 renal, 44.5 µM; in the assay on SN12C renal, 59.9 µM. Further, the TGI in the assay with HCT-116 colon was greater than 100 µM; in the assay with KM12 colon it was 83.6 µM; in the assay with SNB-19 CNS it was 84.3 µM; in the assay with T-47D breast, greater than 100 µM; with IGROV1 ovarian, 44.2 µM.
In the case of `c1ccc2c(c1)ccc1ncccc12`, the TGI in the assay on NCI-H23 lung, in the assay on SF-295 CNS, with ACHN renal, in the assay on CAKI-1 renal, in the assay with UACC-62 melanoma and with SF-268 CNS was greater than 100 µM throughout. Besides, the TGI in the assay on K-562 leukemia, in the assay on SR leukemia, in the assay with UACC-257 melanoma, in the assay with BT-549 breast, in the assay on 786-0 renal and in the assay with SN12C renal was greater than 100 µM each time. Further, the TGI in the assay with HCT-116 colon, with KM12 colon, in the assay on SNB-19 CNS, in the assay with T-47D breast and in the assay on IGROV1 ovarian was greater than 100 µM throughout.
Turning to `CC1=NN(C(=O)CC(=O)Nc2ccccc2C)C(=O)C1N=Nc1ccc(S(=O)(=O)c2ccc(N=NC3C(=O)N(C(=O)CC(=O)Nc4ccccc4C)N=C3C)cc2)cc1` (centres undefined), the TGI in the assay on NCI-H23 lung, in the assay on SF-295 CNS, with ACHN renal, in the assay with CAKI-1 renal, with UACC-62 melanoma and in the assay on SF-268 CNS was greater than 100 µM in each case. Moreover, the TGI in the assay on K-562 leukemia, in the assay with SR leukemia, in the assay with UACC-257 melanoma, in the assay on BT-549 breast, with 786-0 renal and in the assay with SN12C renal was greater than 100 µM each time. Besides, the TGI in the assay with HCT-116 colon, in the assay with KM12 colon, with SNB-19 CNS, in the assay on T-47D breast and with IGROV1 ovarian was greater than 100 µM throughout.
For `CC(Oc1ccccc1)C(=O)NN` (centres undefined), the TGI in the assay on NCI-H23 lung, in the assay with SF-295 CNS, in the assay with ACHN renal, in the assay on CAKI-1 renal, in the assay on UACC-62 melanoma and in the assay with SF-268 CNS was greater than 100 µM throughout. Further, the TGI in the assay on K-562 leukemia, in the assay on SR leukemia, in the assay with UACC-257 melanoma, with BT-549 breast, in the assay with 786-0 renal and in the assay with SN12C renal was greater than 100 µM throughout. Further, the TGI in the assay with HCT-116 colon, with KM12 colon, in the assay with SNB-19 CNS, with T-47D breast and with IGROV1 ovarian was greater than 100 µM throughout.
